In PMC5648786, “Characterization of a dual function macrocyclase enables design and use of efficient macrocyclization substrates” (Nature Communications, 2017):
No end group written: not given here.

T1: GmPOPB-S577A (inactive mutant) (Galerina marginata, UniProt H2E7Q8, S577A)
T1 construct: His-tag (TEV-cleavable) (cleaved yes); made in house; host or cells: E. coli BL21(DE3)
T1 sequence (H2E7Q8 1-730 S577A): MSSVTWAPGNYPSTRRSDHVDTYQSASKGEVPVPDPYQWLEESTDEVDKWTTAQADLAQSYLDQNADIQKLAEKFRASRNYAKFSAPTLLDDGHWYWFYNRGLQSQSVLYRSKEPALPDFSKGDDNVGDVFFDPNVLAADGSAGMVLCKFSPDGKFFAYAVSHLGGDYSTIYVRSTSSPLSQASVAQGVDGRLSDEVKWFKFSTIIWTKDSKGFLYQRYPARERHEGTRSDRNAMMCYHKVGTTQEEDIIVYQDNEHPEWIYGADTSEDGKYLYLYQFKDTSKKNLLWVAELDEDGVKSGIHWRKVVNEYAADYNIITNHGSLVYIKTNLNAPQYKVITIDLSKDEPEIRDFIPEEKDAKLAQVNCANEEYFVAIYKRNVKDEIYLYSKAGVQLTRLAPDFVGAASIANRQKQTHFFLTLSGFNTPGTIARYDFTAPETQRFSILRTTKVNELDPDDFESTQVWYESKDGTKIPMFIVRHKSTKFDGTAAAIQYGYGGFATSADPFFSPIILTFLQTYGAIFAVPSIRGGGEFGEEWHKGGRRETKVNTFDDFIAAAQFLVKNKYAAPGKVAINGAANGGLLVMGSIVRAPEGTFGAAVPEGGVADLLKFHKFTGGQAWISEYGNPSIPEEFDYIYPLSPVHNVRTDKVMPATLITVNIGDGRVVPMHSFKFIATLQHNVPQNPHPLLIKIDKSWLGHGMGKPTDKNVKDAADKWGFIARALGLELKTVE

T2: GmPOPB-S577A (Galerina marginata, UniProt H2E7Q8, S577A)
T2 sequence: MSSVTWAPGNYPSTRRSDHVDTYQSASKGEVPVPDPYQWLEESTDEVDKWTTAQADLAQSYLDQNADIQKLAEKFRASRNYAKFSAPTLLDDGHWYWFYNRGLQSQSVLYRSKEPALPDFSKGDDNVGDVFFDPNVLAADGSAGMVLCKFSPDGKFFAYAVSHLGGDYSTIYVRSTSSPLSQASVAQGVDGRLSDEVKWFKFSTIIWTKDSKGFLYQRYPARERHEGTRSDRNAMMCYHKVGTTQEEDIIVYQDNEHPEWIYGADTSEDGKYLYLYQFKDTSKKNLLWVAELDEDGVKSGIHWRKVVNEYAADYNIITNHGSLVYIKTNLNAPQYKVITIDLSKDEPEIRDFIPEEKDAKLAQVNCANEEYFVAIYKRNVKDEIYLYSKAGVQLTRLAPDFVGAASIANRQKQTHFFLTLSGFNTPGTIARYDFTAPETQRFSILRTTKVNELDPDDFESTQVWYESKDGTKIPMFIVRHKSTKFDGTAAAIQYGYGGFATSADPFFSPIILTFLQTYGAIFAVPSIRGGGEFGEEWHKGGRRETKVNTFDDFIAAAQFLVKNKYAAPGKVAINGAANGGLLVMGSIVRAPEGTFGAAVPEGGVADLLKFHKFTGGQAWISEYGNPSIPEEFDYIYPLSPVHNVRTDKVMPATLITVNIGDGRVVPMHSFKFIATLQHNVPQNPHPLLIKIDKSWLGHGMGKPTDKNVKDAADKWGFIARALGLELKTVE

T3: GmPOPB-D661A (Galerina marginata, UniProt H2E7Q8 1-730, D661A)
T3 sequence: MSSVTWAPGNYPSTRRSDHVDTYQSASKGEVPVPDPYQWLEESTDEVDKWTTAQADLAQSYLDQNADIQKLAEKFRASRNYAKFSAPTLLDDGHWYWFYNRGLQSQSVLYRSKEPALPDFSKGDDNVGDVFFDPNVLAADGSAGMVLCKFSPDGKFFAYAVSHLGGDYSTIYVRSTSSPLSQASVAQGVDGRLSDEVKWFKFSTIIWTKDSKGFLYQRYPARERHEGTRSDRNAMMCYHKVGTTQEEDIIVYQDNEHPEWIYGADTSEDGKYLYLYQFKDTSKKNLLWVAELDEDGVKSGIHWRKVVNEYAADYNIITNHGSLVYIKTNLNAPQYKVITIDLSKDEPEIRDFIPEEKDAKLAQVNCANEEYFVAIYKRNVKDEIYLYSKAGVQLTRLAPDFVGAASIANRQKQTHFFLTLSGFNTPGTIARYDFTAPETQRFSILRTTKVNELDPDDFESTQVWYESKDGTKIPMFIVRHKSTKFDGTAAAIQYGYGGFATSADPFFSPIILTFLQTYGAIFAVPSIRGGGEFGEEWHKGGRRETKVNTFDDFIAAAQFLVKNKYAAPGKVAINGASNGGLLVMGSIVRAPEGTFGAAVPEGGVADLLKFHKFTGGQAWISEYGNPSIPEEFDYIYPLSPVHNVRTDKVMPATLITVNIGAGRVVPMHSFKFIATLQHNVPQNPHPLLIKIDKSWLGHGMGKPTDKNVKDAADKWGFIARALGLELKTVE


Columns and labels:
[1] = target: T1, GmPOPB-S577A (inactive mutant); experiment: Isothermal titration calorimetry, peptide binding to inactive mutant GmPOPB_S577A; conditions: ITC, 20 °C
GmPOPB [2] = target: T4, GmPOPB (Galerina marginata, UniProt H2E7Q8); experiment: Peptide products formed after 1 h and 16 h reaction of truncated substrates with GmPOPB; format: biochemical; set-up: His-tag (TEV-cleavable) (cleaved yes); made in house; host or cells: E. coli BL21(DE3); conditions: 1 μM GmPOPB, 200 μM peptide substrate, performed twice
Description: The peptides are colored as Fig. 1c with N-terminus at top. Error bars are standard error of the mean from the average of at least two independent measurements (Supplementary Table 3). c Michaelis–Menten curves show both the 13mer and 14mer are substrates for the enzyme. Fitted values for K d, K m, and k cat are shown in Supplementary Tables 2 and 3. Error bars are standard error of the mean from duplicate measurements. d Cyclic peptide produced after 1 h reaction with 1 μM GmPOPB and 200 μM of various peptide substrates. e Peptide produced after 16 h of reaction with 1 μM GmPOPB and 200 μM of various peptide substrates. Peptide sequences are colored as Fig. 1b and detailed in Supplementary Fig. 1
Comparison between distinct substrates was performed in 50 mM Tris pH 8.0, 50 mM NaCl, 10 mM DTT with varying concentrations of substrates at room temperature. All reactions were performed in duplicates. […] Reactants were separated from products for quantification by injecting 50 μL of each quenched time point mix onto a ZORBAX SB-C18, 5 µm, 9.4 × 50 mm (Agilent) column connected to an Agilent LC-MS (G6130B Single Quad, Agilent Technologies). […] For progress curves with the 35mer substrate, measurements were triplicate and quantification relied on ion counts from mass spectrometry. […] Authentic cyclic peptide was quantified by UV absorbance. […]

GmPOPB [3] = target: T4, GmPOPB; conditions: macrocyclization; 50 mM Tris pH 8.0, 50 mM NaCl, 10 mM DTT, room temperature; GmPOPB 1 μM for 13mer and 14mer, 50 nM for C6S, 20 nM others; duplicates, fit ± SEM
Description: Comparison between distinct substrates was performed in 50 mM Tris pH 8.0, 50 mM NaCl, 10 mM DTT with varying concentrations of substrates at room temperature. All reactions were performed in duplicates. Reactions were started by adding GmPOPB (50 nM for GmAMA1_C6S, 1 μM for the 13mer and 14mer, and 20 nM for other substrates) to the assay mixture containing buffer and peptide. Reactions were quenched at several time points by adding 50 μL reaction mixture to 20 μL 6% TFA. Reactants were separated from products for quantification by injecting 50 μL of each quenched time point mix onto a ZORBAX SB-C18, 5 µm, 9.4 × 50 mm (Agilent) column connected to an Agilent LC-MS (G6130B Single Quad, Agilent Technologies). Reactants were separated from products using a gradient from H2O containing 0.1% TFA or 0.1% formic acid and 5% acetonitrile to 50% acetonitrile, at 1.5 ml/min for 8 min. […] The sum of product+substrate was assumed equal to the total initial amount of substrate, product converted from % to concentration. This value was divided by concentration of enzyme present to yield v/E t (min^−1). […] For progress curves with the 35mer substrate, measurements were triplicate and quantification relied on ion counts from mass spectrometry. […] Authentic cyclic peptide was quantified by UV absorbance. […] Kinetic data were fitted to a Michaelis–Menten equation using GraphPad Prism, and values reported are average and standard error of the mean.

GmPOPB-S577A = target: T2, GmPOPB-S577A; experiment: crystal structure; conditions: both partners purified
GmPOPB-D661A = target: T3, GmPOPB-D661A; experiment: crystal structure; conditions: both partners purified

Row | Molecule | -TΔS ([1]; GmPOPB_S577A, average ± SEM) | ΔG ([1]; GmPOPB_S577A, average ± SEM) | ΔH ([1]; GmPOPB_S577A, average ± SEM) | Kd ([1]; peptide titrated into GmPOPB_S577A, 50 mM Tris pH 8.0, 50 mM NaCl, 10 mM DTT, single-site model, n fixed at 1.0, average ± SEM of at least 2 measurements) | Linear product (hydrolysis instead of macrocyclization) after 16 h of reaction (GmPOPB [2]) | kcat (GmPOPB [3]) | binding result (GmPOPB-S577A) | binding result (GmPOPB-D661A)
1 | IWGIGCNPWTAEHV [14mer] | -5.8 ± 0.2 kcal/mol | -6.7 ± 0.1 kcal/mol | -0.9 ± 0.2 kcal/mol | 9.5 ± 1.1 µM | less linear product | 0.00967 ± 0.00167 s⁻¹ |  | 
2 | IWGIGCNPWTAEHVDQTLASGNDIC (also called 25mer peptide) [25mer substrate (core, linker and recognition tail)] |  |  |  |  |  |  | binds | binds
